Each molecule was assayed on condensate formation in cocultures of iPSC-hepatic endoderm cells, HUVECs and MSCs (assay: Inhibitory experiment against cell condensate formation using chemical substances). Settings: addition to the cocultures.
Format: cell-based, human
From the text: Hepatic endoderm cells derived from human induced pluripotent stem cells (iPSCs), umbilical cord-derived endothelial cells (HUVECs), and mesenchymal stem cells (MSCs) were labeled with distinctive fluorescent markers and cocultured on a solidified matrix gel which was already described. […] To elucidate dynamics of such condensate formation in more detail, the present inventors examined the temporal development of the position of the edge of the cell condensate (square root of cell area) and circularity by image analysis (FIG. 1b).
On each well of a 24-well plate on which PA gel planar substrate was placed or to which Matrigel coating [Matrigel (BD) either in stock solution or as a mixture with medium at 1:1 was poured at 300 μl/well and left to stand in a 37° C., 5% CO2 incubator for 10 min until it solidified] was applied, 2×10^6 cells or more of multiple types in any combination (tissues isolated from embryo or adult, or KO-HepG2, HUVEC, etc.) as mixed with 2×10^5 MSCs were seeded. In order to form small-sized cell condensates, 4×10^3 cells or more of multiple types in any combination (tissues isolated from embryo or adult, or KO-HepG2, HUVEC) were mixed with 5×10^3 or more MSCs and seeded. In either case, the cells were subsequently cultured in a 37° C. incubator for a day. After seeding, chronological observation of cell coculture was performed with a stereomicroscope or a confocal microscope.

SMILES	effect on condensate formation
c1cc(CN2CCCNCCNCCCNCC2)ccc1CN1CCCNCCNCCCNCC1 [AMD3100]	could not hinder
Cc1ccc2c(c1)C(=O)C1(O)CCN(c3ccccc3)C1=N2 (stereo not drawn) [blebbistatin]	completely antagonized
C[C@@H](N)[C@H]1CC[C@H](C(=O)Nc2ccncc2)CC1 [Sample Y-27632]	partially delayed

Reference: US20170067014A1, “METHOD FOR GENERATING CELL CONDENSATE FOR SELF-ORGANIZATION” (PUBLIC UNIVERSITY CORPORATION YOKOHAMA CITY UNIVERSITY, priority 2014, published 2017)
